Several values for one entry are separate records, joined by “and”; a condition that tells them apart may be missing. Identical values can stand only once. Like-named read-outs stand apart in the source and are kept apart here.
What was measured:
[1] = molecular target: human chitotriosidase (hCHIT1) (Homo sapiens, UniProt Q13231); assay: Chitinase activity assay with fluorescent 4-MU substrate, hCHIT1; type: biochemical; conditions: read-out: IC50 against hCHIT1
recombinant mAMCase = molecular target: T1, recombinant mAMCase (Mus musculus, UniProt Q91XA9); assay: Recombinant mAMCase (COS-7 cell-free supernatant) chitinase activity assay; type: biochemical; conditions: 10 min at 37°C, read-out: IC50 against recombinant mAMCase
T1 construct: The full-length-coding region of mAMCase was amplified using a lung cDNA template; V5/His; made in house; cell-free, serum-free supernatant used as enzyme source
T1 sequence (Q91XA9 22-473): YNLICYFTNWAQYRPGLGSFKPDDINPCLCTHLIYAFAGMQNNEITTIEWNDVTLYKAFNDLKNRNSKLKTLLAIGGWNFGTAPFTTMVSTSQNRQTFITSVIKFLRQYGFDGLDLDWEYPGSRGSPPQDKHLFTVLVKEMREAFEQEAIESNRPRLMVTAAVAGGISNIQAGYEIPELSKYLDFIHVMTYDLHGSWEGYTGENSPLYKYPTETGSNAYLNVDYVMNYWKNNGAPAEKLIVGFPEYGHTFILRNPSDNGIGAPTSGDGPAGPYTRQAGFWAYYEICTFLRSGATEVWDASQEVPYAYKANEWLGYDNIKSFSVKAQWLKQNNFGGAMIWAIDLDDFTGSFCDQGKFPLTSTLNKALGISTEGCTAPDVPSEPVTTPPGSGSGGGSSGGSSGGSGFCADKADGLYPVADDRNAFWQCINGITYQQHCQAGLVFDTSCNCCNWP
Description: Chitinase activity was determined using a fluorescent 4-methylumbelliferyl (4-MU) substrate. […] Chitinase activity is measured relative to the amount of substrate hydrolysed/hr/mL sample.
The full-length-coding region of mAMCase was amplified using a lung cDNA template. The cDNA fragment was directionally cloned into pcDNA3.1 (Invitrogen), to generate a V5/His tagged plasmid. TOP10 competent cells were transformed with the AMCase plasmid and sequence confirmed. Mammalian COS-7 cells were transfected with AMCase-pcDNA3.1 plasmid using Lipofectamine 2000 (Invitrogen). COS-7 cell supernatants were screened for AMCase protein by western blot and chitinase activity. A stable AMCase-expressing cell line was generated using G418 selection medium (RPMI).
Chitinase activity of hAMCase, lung homogenates, or AMCase COS-7 cell supernatants (serum-free) were determined using 4-methylumbelliferyl-β-D-N,N′,N″-triacetylchitotrioside and 4-methylumbelliferyl-β-D-N,N′,N″-triacetylchitobioside, as described. Samples were incubated with substrate (0.022 mM in 100 mM citric acid, 200 mM sodium phosphate buffer [pH 5.2]) in a final volume of 50 μL. […] Liberated 4-methlyumberlliferone was quantified using a microplate fluorometer (excitation 360 nm/emission 440 nm). Ki and IC50 values were determined in the presence of different concentrations of inhibitor. Experiments were performed in duplicate or triplicate.

lung chitinase activity = assay: Chitinase activity in lung homogenates, OVA allergic inflammation model; type: in vivo, BALB/c mice
Description: Samples were incubated with substrate (0.022 mM in 100 mM citric acid, 200 mM sodium phosphate buffer [pH 5.2]) in a final volume of 50 μL. After a 10 min incubation at 37°C, the reaction was stopped with the addition of 500 μl sodium carbonate buffer (0.5 M sodium carbonate and 0.5 M sodium bicarbonate [pH 10.6]). Liberated 4-[…] was quantified using a microplate fluorometer (excitation 360 nm/emission 440 nm). Ki and IC50 values were determined in the presence of different concentrations of inhibitor. Experiments were performed in duplicate or triplicate. All experiments used female BALB/c mice, 6- to 8-weeks-old. Mice were kept in individually ventilated cages and all experiments were conducted under UK Home Office guidelines. Mice were sensitized (day 0) and boosted (day 14) i.p. with 20 μg OVA (Grade V, Sigma) adsorbed to 9% potassium alum. Mice were either challenged on day 28 and 30 with 50 μg OVA or PBS by the intratracheal route or were challenged with 1% OVA or PBS by aerosol for 30 min on day 28 to day 30. […] Necropsies were performed 24 hr after the final airway challenge. Protein from dissected lung was homogenized (TissueLyser, QIAGEN) in lysis buffer containing protease cocktail inhibitor (Sigma). Samples were incubated for 20 min on ice, prior to centrifugation 10,000 × g to removed cell debris. Protein amounts were quantified with Coomassie (Bradford) Reagent. […]

[2] = test system: ventilatory function (penH); assay: Ventilatory function (penH) after methacholine, whole-body plethysmography; type: in vivo, BALB/c mice
Description: All experiments used female BALB/c mice, 6- to 8-weeks-old. Mice were kept in individually ventilated cages and all experiments were conducted under UK Home Office guidelines. Mice were sensitized (day 0) and boosted (day 14) i.p. with 20 μg OVA (Grade V, Sigma) adsorbed to 9% potassium alum. Mice were either challenged on day 28 and 30 with 50 μg OVA or PBS by the intratracheal route or were challenged with 1% OVA or PBS by aerosol for 30 min on day 28 to day 30. […] Necropsies were performed 24 hr after the final airway challenge. […] Briefly, conscious mice were placed in individual chambers for a 10 min acclimatization period. Spontaneous breathing patterns in mice relate to changes in chamber air pressure, which are measured by a transducer attached to the chamber wall. Differences in the rates of pressure change during peak inspiration and peak expiration and the timing of expiration are used to calculate penH according to the following equation; penH = ((expiratory time/relaxation time) – 1) × (peak expiratory flow (mL/s)/peak inspiratory flow (ml/s)). PenH measurements are not used as a quantitative measurement that relates to airway size and rather reflect changes to ventilation following bronchoconstriction. Baseline measurements of penH were made following an aerosol of PBS. […]

[3] = test system: lung tissue gene expression; assay: Lung mRNA expression by quantitative RT-PCR, OVA model; type: in vivo, BALB/c mice
Description: All experiments used female BALB/c mice, 6- to 8-weeks-old. Mice were kept in individually ventilated cages and all experiments were conducted under UK Home Office guidelines. Mice were sensitized (day 0) and boosted (day 14) i.p. with 20 μg OVA (Grade V, Sigma) adsorbed to 9% potassium alum. Mice were either challenged on day 28 and 30 with 50 μg OVA or PBS by the intratracheal route or were challenged with 1% OVA or PBS by aerosol for 30 min on day 28 to day 30. […] Necropsies were performed 24 hr after the final airway challenge. One part of the left lobe of the lung, removed following BALF, was stored in RNAlater (Ambion) at 4°C for up to 4 weeks. Lung samples were homogenized in RLT lysis buffer using TissueLyser (QIAGEN) and total RNA extracted using RNeasy mini spin columns (QIAGEN). RNA (1 μg) was used for synthesis of cDNA using Moloney murine leukemia virus reverse transcriptase. Relative quantification of genes was carried out by RT-PCR using the Roche Lightcycler, as previously described ([Nair et al., 2005]). PCR amplication was analyzed using 2nd derivative Maximum alogarithm (LightCycler 480 SW 1.5, Roche) and the expression of the gene of interest was normalized to the housekeeping gene, GAPDH. Primer sequences used were as follows: GAPDH-For [NT], Rev [NT]1-For [NT], Rev [NT] Collagen I-For [NT], Rev [NT]-1α-For [NT], Rev […]-12-For [NT], Rev [NT]; and TIMP-1-For [NT], Rev [NT]

[4] = test system: OVA-specific tLN cell cultures; assay: Cytokine and chemokine secretion from draining tLN cell cultures (Luminex); type: in vivo, BALB/c mice
Description: All experiments used female BALB/c mice, 6- to 8-weeks-old. Mice were kept in individually ventilated cages and all experiments were conducted under UK Home Office guidelines. Mice were sensitized (day 0) and boosted (day 14) i.p. with 20 μg OVA (Grade V, Sigma) adsorbed to 9% potassium alum. Mice were either challenged on day 28 and 30 with 50 μg OVA or PBS by the intratracheal route or were challenged with 1% OVA or PBS by aerosol for 30 min on day 28 to day 30. […] Necropsies were performed 24 hr after the final airway challenge.
The draining thoracic lymph nodes (tLN) were dissected and single-cell suspensions made before being plated out at 1 × 10^6 cells/mL in 96-well plates (RPMI 1640 supplemented with L-glutamine, penicillin streptomycin, and FCS). Cells were stimulated with 500 μg/mL OVA and incubated for 72 hr at 37°C, 5% CO2. MIP-1α levels were measured in cell-free supernatants using a Luminex kit (Invitrogen) and samples were read with a Luminex 100 multiplex bead array system.

[5] = 1 and 5 mg/kg i.p., allergic animals

human chitotriosidase (hCHIT1), sequence (Q13231 22-466): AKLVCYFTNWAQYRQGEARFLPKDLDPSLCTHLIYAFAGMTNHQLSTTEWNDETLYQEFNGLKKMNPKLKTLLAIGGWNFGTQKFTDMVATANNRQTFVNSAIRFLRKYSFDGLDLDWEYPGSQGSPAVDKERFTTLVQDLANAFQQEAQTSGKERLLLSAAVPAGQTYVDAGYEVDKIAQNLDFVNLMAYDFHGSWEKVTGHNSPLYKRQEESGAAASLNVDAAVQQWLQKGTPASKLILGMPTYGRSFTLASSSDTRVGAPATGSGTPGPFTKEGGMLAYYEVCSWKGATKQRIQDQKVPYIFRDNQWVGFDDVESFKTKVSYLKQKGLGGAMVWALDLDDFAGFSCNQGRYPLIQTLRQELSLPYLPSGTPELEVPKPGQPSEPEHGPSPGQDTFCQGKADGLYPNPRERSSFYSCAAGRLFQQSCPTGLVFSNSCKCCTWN

In the case of `Cn1cnc2c1c(=O)n(CCCn1c(=O)c3[nH]cnc3n(C)c1=O)c(=O)n2C` [bisdionin F], the IC50 ([1]; listed as Bisdionin F) is reported as 17.1 ± 1 µM, the IC50 [1] is reported as 17 µM and the IC50 (recombinant mAMCase) is reported as 2.21 µM and 2.2 µM. The “chitinase activity in the lungs” value (lung chitinase activity; 5 mg/kg i.p., control PBS and OVA-challenged mice, about 24 hr after last challenge) was “significantly reduced”, the “lowest dose at which any chitinase inhibition was observed” value (lung chitinase activity; i.p., allergic mice) was 1 mg/kg and the “penH in PBS-challenged animals” value ([2]; 5 mg/kg, data not shown) was “no effect”. For the same compound, the “penH in allergic mice” value ([2]; 1 and 5 mg/kg i.p., highest concentration of methacholine) was “significantly reduced”, the “MIP-1α mRNA expression in lung” value ([3]; 5 mg/kg i.p., OVA-challenged animals) was “enhanced” and the “MMP-12 mRNA expression in lung” value [3, 5] was “significantly increased”. For the same compound, the “TIMP-1 mRNA expression in lung” value [3, 5] was “downregulated”, the “Ym1 mRNA expression in lung” value [3, 5] was “significantly increased” and the “procollagen I mRNA expression in lung” value [3, 5] was “significantly increased”. The “enhancement of the ratio of MMP:TIMP expression” value ([3]; MMP-12:TIMP-1 mRNA, allergic animals) was 2.5 fold, the “MIP-1α secretion from tLN cell cultures” value ([4]; 5 mg/kg i.p., OVA-challenged animals, 72 hr culture) was “enhanced” and the “IL-17 secretion in tLN cultures” value ([4]; allergic mice, data not shown) was “not significantly altered”. The “KC secretion in tLN cultures” value ([4]; allergic mice, data not shown) was “not significantly altered”.
